From ChEMBL document CHEMBL5104227, “Synthesis and evaluation of radiolabeled porphyrin derivatives for cancer diagnoses and their nonradioactive counterparts for photodynamic therapy” (RSC Med Chem, 2022) come the findings set out here.

As usually defined, the logD is lipophilicity at a set pH, counting ionised and neutral species. In general, IC50 refers to the midpoint of a concentration-inhibition curve.

Activity calls are given as the source filed them. No cut-off for these calls is given here.

Data set [1] is described as follows: Biodistribution in lung of BALB/c mouse xenografted with […] Colon 26 cells at 37 kBq, iv measured upto 96 hrs by auto-well gamma counter analysis. Format: ADME, organism-based. The settings on record: in vivo. Background: A xenograft is tissue or cells of one species grown in another, often human tumour cells in immunodeficient mice.
Data set [2] is described as follows: Biodistribution in spleen of BALB/c mouse xenografted with […] Colon 26 cells at 37 kBq, iv measured upto 96 hrs by auto-well gamma counter analysis. In kind it is ADME, organism-based. The note with it: in vivo.
The nature of data set [3]: Biodistribution in Tumor/blood of BALB/c mouse xenografted with […] Colon 26 cells at 37 kBq, iv by auto-well gamma counter analysis. In kind it is ADME, organism-based. The note with it: in vivo, 96 h, TDE = time-dependent effect.
A short description of data set [4]: Biodistribution in liver of BALB/c mouse xenografted with […] Colon 26 cells at 37 kBq, iv measured upto 96 hrs by auto-well gamma counter analysis. In kind it is ADME, organism-based. The note with it: in vivo.
Data set [5] in a line: Drug uptake in […] Colon 26 cells measured per mg of protein after 3 hrs by auto-well gamma counter analysis. Format: ADME, cell-based. The settings on record: mouse, colon 26, 3 h.
Data set [6] is described as follows: Toxicity in BALB/c mouse xenografted with […] Colon 26 cells assessed as weight loss at 13.6 umol/kg, iv pretreated for 24 hrs followed by 30 mins irradiation with 50 W LED light and measured upto 7 days. The settings on record: in vivo, 168 h, dose 13.6 µmol/kg, time < 7 day. In kind it is organism-based.
Data set [7] in a line: Biodistribution in Tumor/muscle of BALB/c mouse xenografted with […] Colon 26 cells at 37 kBq, iv measured at 48 hrs by auto-well gamma counter analysis. Format: ADME, organism-based. The note with it: in vivo.
A short description of data set [8]: Octanol-water partition coefficient, logP of the compound at pH 7.4 incubated for 10 mins by shake-flask method. In kind it is physicochemical.
Data set [9] is described as follows: Drug uptake in Tumor of BALB/c mouse xenografted with […] Colon 26 cells at 37 kBq, iv measured at 48 hrs by auto-well gamma counter analysis. Format: ADME, organism-based, Neoplasm. The note with it: in vivo.
Data set [10] can be described thus: Induction of singlet oxygen production in DMSO assessed as singlet oxygen quantum yield by measuring the photooxidation of 9,10-dimethylanthracene at 5 uM irradiated with 50 W LED light. In kind it is functional.
Data set [11] deals with Colon 26. Nature of the data set: Photodynamic therapeutic activity against […] Colon 26 cells /c xenografted in BALB/c mouse assessed as tumor growth inhibition at 13.6 umol/kg, iv pretreated for 24 hrs followed by 30 mins irradiation with 50 W LED light and measured upto 7 days. In kind it is functional, organism-based. The settings on record: dose 13.6 µmol/kg, time <= 7.0 day, tested as the 125I-labelled form.

Data set [12] relates to Colon 26. Put plainly: Dark toxicity against […] Colon 26 cells assessed as inhibition of cell growth incubated for 24 hrs by MTT assay. The note with it: Mus musculus, Colon 26, 24 h. Format: functional, cell-based. On the technique in general: Tetrazolium assays rely on reduction of a dye to a coloured formazan, in cell work by metabolically active cells.
The subject of data set [13] is Colon 26. Put plainly: Phototoxicity against […] Colon 26 cells assessed as inhibition of cell growth preincubated for 24 hrs followed by compound washout with replacement of fresh medium and irradiation with 50 W LED light by MTT assay. The settings on record: Mus musculus, Colon 26, light or radiation study. Format: functional, cell-based.

As to `Oc1ccc(-c2c3nc(c(-c4ccccc4)c4ccc([nH]4)c(-c4ccccc4)c4nc(c(-c5ccccc5)c5ccc2[nH]5)C=C4)C=C3)cc1[125I]`, the Drug uptake result was “Active” in data set [1]; “Active” in data set [2]; “Tde” in [3]; “Active” in [4]; 54% in data set [5]; “Active” in data set [7]. This molecule also came in with a Drug uptake in data set [9] of 18 % ID/g. In data set [6], the Activity entry is “Non-Toxic”. Also, the logD at 10 min in data set [8] amounted to 2.96.
Take `Oc1ccc(-c2c3nc(c(-c4ccccc4)c4ccc([nH]4)c(-c4ccccc4)c4nc(c(-c5ccccc5)c5ccc2[nH]5)C=C4)C=C3)cc1I`: the Activity in [10] is 0.65. Further, the outcome in the data set on Colon 26 [11] was Active. The IC50 is above 50 µM in the data set on Colon 26 [12] and 8.77 µM in the data set with Colon 26 [13].
As to `O=C(N[C@@H](Cc1ccc(O)c([125I])c1)C(=O)O)c1ccc(-c2c3nc(c(-c4ccccc4)c4ccc([nH]4)c(-c4ccccc4)c4nc(c(-c5ccccc5)c5ccc2[nH]5)C=C4)C=C3)cc1`, the Drug uptake result in data set [1] is “Active”; in data set [2], “Active”; in [3], “Tde”; in [4], “Active”; in [5], 52.9%; in data set [7], “Active”. The same molecule showed a Drug uptake in [9] of 8.7 % ID/g. Besides, in [6], the Activity entry is “Non-Toxic”. This molecule had a logD at 10 min in data set [8] of 2.55.
Regarding `C1=Cc2nc1c(-c1ccccc1)c1ccc([nH]1)c(-c1ccccc1)c1nc(c(-c3ccccc3)c3ccc([nH]3)c2-c2ccccc2)C=C1`, the Activity in [10] amounted to 0.52.
As for `O=c1[nH]cc(F)c(=O)[nH]1` [FLUOROURACIL], the values for the IC50 in the data set with Colon 26 [12] and in the data set with Colon 26 [13] were 3.87 µM and 4.1 µM, respectively.
As for `O=C(N[C@@H](Cc1ccc(O)c(I)c1)C(=O)O)c1ccc(-c2c3nc(c(-c4ccccc4)c4ccc([nH]4)c(-c4ccccc4)c4nc(c(-c5ccccc5)c5ccc2[nH]5)C=C4)C=C3)cc1`, the Activity in data set [10] was 0.51. Besides, the outcome in the data set with Colon 26 [11] was Active. Moreover, the IC50 was above 100 µM with Colon 26 [12] and 5.28 µM with Colon 26 [13].
